#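 The compound was tested at five concentrations on cells cultured in 96-well plates, with a 48-hour exposure period. Here, GI50 denotes the concentration required for 50% inhibition of growth.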 Activity calls are given as the source filed them. Cut-off read from the data, not from the text of the source: active = GI50 up to about 1.1 µM and inactive = higher.
# Experiments:
# Test in all cases: inhibition of tumour cell growth, NCI panel, 48 h
# MDA-N = tested on: MDA-N
# ACHN = tested on: ACHN
# UACC-257 = tested on: UACC-257
# CAKI-1 = tested on: CAKI-1
# RPMI-8226 = tested on: RPMI-8226
# HOP-92 = tested on: HOP-92
# NCI-H226 = tested on: NCI-H226
# NCI-H522 = tested on: NCI-H522
# COLO 205 = tested on: COLO 205
# SK-OV-3 = tested on: SK-OV-3
# NCI-H460 = tested on: NCI-H460
# SK-MEL-28 = tested on: SK-MEL-28
# SW-620 = tested on: SW-620
# HOP-62 = tested on: HOP-62
# UACC-62 = tested on: UACC-62
# MDA-MB-435 = tested on: MDA-MB-435
# LOX IMVI = tested on: LOX IMVI
# OVCAR-8 = tested on: OVCAR-8
# NCI/ADR-RES = tested on: NCI/ADR-RES
# OVCAR-5 = tested on: OVCAR-5
# HL-60 = tested on: HL-60
# SF-539 = tested on: SF-539
# HCT-15 = tested on: HCT-15
# UO-31 = tested on: UO-31
# SK-MEL-5 = tested on: SK-MEL-5
# MOLT-4 = tested on: MOLT-4
# M14 = tested on: M14
# OVCAR-4 = tested on: OVCAR-4
# NCI-H23 = tested on: NCI-H23
# SR = tested on: SR
# TK-10 = tested on: TK-10
# U-251 = tested on: U-251
# SK-MEL-2 = tested on: SK-MEL-2
# SF-295 = tested on: SF-295
# SNB-75 = tested on: SNB-75
# MCF7 = tested on: MCF7
# SF-268 = tested on: SF-268
# RXF 393 = tested on: RXF 393
# EKVX = tested on: EKVX
# SN12C = tested on: SN12C
# HCT-116 = tested on: HCT-116
# OVCAR-3 = tested on: OVCAR-3
# A549 = tested on: A549
# A498 = tested on: A498
# T47D = tested on: T47D
# IGROV-1 = tested on: IGROV-1
# Malme-3M = tested on: Malme-3M
# MDA-MB-231 = tested on: MDA-MB-231
# DU-145 = tested on: DU-145
# HCC 2998 = tested on: HCC 2998
# HT-29 = tested on: HT-29
# CCRF-CEM = tested on: CCRF-CEM
# PC-3 = tested on: PC-3
# Hs-578T = tested on: Hs-578T
# SNB-19 = tested on: SNB-19
# KM12 = tested on: KM12
# K562 = tested on: K562
# 786-0 = tested on: 786-0
# BT-549 = tested on: BT-549
smiles,measurement,setting,value
CC(C)(C)[Si](C)(C)OCC1OC(n2cnc3c(=O)[nH]c(N)nc32)C(O[Si](C)(C)C(C)(C)C)C1O[Si](C)(C)C(C)(C)C (stereo unspecified),GI50,MDA-N,1.57 µM (inactive)
same,GI50,ACHN,2.08 µM (inactive)
same,GI50,UACC-257,1.78 µM (inactive)
same,GI50,CAKI-1,10.9 µM (inactive)
same,GI50,RPMI-8226,1.14 µM (inactive)
same,GI50,HOP-92,2.61 µM (inactive)
same,GI50,NCI-H226,2.84 µM (inactive)
same,GI50,NCI-H522,1.68 µM (inactive)
same,GI50,COLO 205,1.72 µM (inactive)
same,GI50,SK-OV-3,1.95 µM (inactive)
same,GI50,NCI-H460,1.32 µM (inactive)
same,GI50,SK-MEL-28,1.93 µM (inactive)
same,GI50,SW-620,2.47 µM (inactive)
same,GI50,HOP-62,2.64 µM (inactive)
same,GI50,UACC-62,1.22 µM (inactive)
same,GI50,MDA-MB-435,1.47 µM (inactive)
same,GI50,LOX IMVI,2.09 µM (inactive)
same,GI50,OVCAR-8,3.2 µM (inactive)
same,GI50,NCI/ADR-RES,> 100 µM (inactive)
same,GI50,OVCAR-5,2.33 µM (inactive)
same,GI50,HL-60,0.849 µM (active)
same,GI50,SF-539,2.17 µM (inactive)
same,GI50,HCT-15,> 46.9 µM
same,GI50,UO-31,5.11 µM (inactive)
same,GI50,SK-MEL-5,0.594 µM (active)
same,GI50,MOLT-4,1.24 µM (inactive)
same,GI50,M14,1.5 µM (inactive)
same,GI50,OVCAR-4,1.74 µM (inactive)
same,GI50,NCI-H23,1.44 µM (inactive)
same,GI50,SR,2.39 µM (inactive)
same,GI50,TK-10,2.34 µM (inactive)
same,GI50,U-251,1.78 µM (inactive)
same,GI50,SK-MEL-2,0.176 µM (active)
same,GI50,SF-295,1.55 µM (inactive)
same,GI50,SNB-75,3.11 µM (inactive)
same,GI50,MCF7,2.33 µM (inactive)
same,GI50,SF-268,2.58 µM (inactive)
same,GI50,RXF 393,2.04 µM (inactive)
same,GI50,EKVX,19.5 µM (inactive)
same,GI50,SN12C,2.2 µM (inactive)
same,GI50,HCT-116,1.49 µM (inactive)
same,GI50,OVCAR-3,1.47 µM (inactive)
same,GI50,A549,2.34 µM (inactive)
same,GI50,A498,2.39 µM (inactive)
same,GI50,T47D,2.09 µM (inactive)
same,GI50,IGROV-1,1.92 µM (inactive)
same,GI50,Malme-3M,1.88 µM (inactive)
same,GI50,MDA-MB-231,3.71 µM (inactive)
same,GI50,DU-145,2.33 µM (inactive)
same,GI50,HCC 2998,1.98 µM (inactive)
same,GI50,HT-29,1.8 µM (inactive)
same,GI50,CCRF-CEM,1.3 µM (inactive)
same,GI50,PC-3,1.55 µM (inactive)
same,GI50,Hs-578T,2.46 µM (inactive)
same,GI50,SNB-19,2.29 µM (inactive)
same,GI50,KM12,1.64 µM (inactive)
same,GI50,K562,1.22 µM (inactive)
same,GI50,786-0,1.67 µM (inactive)
COCOCC1CCCN1CN1CCC[C@H]1COCOC (stereo partly specified),GI50,MDA-N,> 100 µM (inactive)
same,GI50,ACHN,> 100 µM (inactive)
same,GI50,UACC-257,> 100 µM (inactive)
same,GI50,CAKI-1,> 100 µM (inactive)
same,GI50,RPMI-8226,33.8 µM (inactive)
same,GI50,HOP-92,> 100 µM (inactive)
same,GI50,NCI-H226,> 100 µM (inactive)
same,GI50,NCI-H522,> 100 µM (inactive)
same,GI50,COLO 205,77.8 µM (inactive)
same,GI50,SK-OV-3,> 100 µM (inactive)
same,GI50,NCI-H460,60.5 µM (inactive)
same,GI50,SK-MEL-28,> 100 µM (inactive)
same,GI50,SW-620,33.2 µM (inactive)
same,GI50,HOP-62,> 100 µM (inactive)
same,GI50,UACC-62,36.6 µM (inactive)
same,GI50,MDA-MB-435,> 100 µM (inactive)
same,GI50,OVCAR-8,> 100 µM (inactive)
same,GI50,NCI/ADR-RES,> 100 µM (inactive)
same,GI50,OVCAR-5,> 100 µM (inactive)
same,GI50,HL-60,17.6 µM (inactive)
same,GI50,HCT-15,38.3 µM
same,GI50,UO-31,> 100 µM (inactive)
same,GI50,SK-MEL-5,> 100 µM (inactive)
same,GI50,MOLT-4,50.4 µM (inactive)
same,GI50,M14,> 100 µM (inactive)
same,GI50,OVCAR-4,> 100 µM (inactive)
same,GI50,NCI-H23,> 100 µM (inactive)
same,GI50,SR,49.8 µM (inactive)
same,GI50,TK-10,> 100 µM (inactive)
same,GI50,U-251,> 100 µM (inactive)
same,GI50,SK-MEL-2,> 100 µM (inactive)
same,GI50,SF-295,> 100 µM (inactive)
same,GI50,SNB-75,> 100 µM (inactive)
same,GI50,MCF7,53.1 µM (inactive)
same,GI50,SF-268,> 100 µM (inactive)
same,GI50,EKVX,> 100 µM (inactive)
same,GI50,SN12C,> 100 µM (inactive)
same,GI50,HCT-116,26.9 µM (inactive)
same,GI50,OVCAR-3,> 100 µM (inactive)
same,GI50,A549,> 100 µM (inactive)
same,GI50,A498,> 100 µM (inactive)
same,GI50,T47D,> 100 µM (inactive)
same,GI50,IGROV-1,> 100 µM (inactive)
same,GI50,MDA-MB-231,> 100 µM (inactive)
same,GI50,DU-145,42.8 µM (inactive)
same,GI50,HT-29,70.6 µM (inactive)
same,GI50,CCRF-CEM,39.2 µM (inactive)
same,GI50,PC-3,> 100 µM (inactive)
same,GI50,Hs-578T,> 100 µM (inactive)
same,GI50,SNB-19,> 100 µM (inactive)
same,GI50,KM12,> 100 µM (inactive)
same,GI50,K562,> 100 µM (inactive)
same,GI50,786-0,26.5 µM (inactive)
CN(C)CCCNC(=O)c1cc(NC(=O)c2cc(NC(=O)[C@@H]3C[C@H]3C(=O)Nc3cc(C(=O)Nc4cc(C(=O)NCCCN(C)C)n(C)c4)n(C)c3)cn2C)cn1C,GI50,ACHN,> 100 µM (inactive)
same,GI50,UACC-257,> 100 µM (inactive)
same,GI50,CAKI-1,> 100 µM (inactive)
same,GI50,RPMI-8226,> 100 µM (inactive)
same,GI50,HOP-92,> 100 µM (inactive)
same,GI50,NCI-H226,> 100 µM (inactive)
same,GI50,NCI-H522,> 100 µM (inactive)
same,GI50,COLO 205,> 100 µM (inactive)
same,GI50,NCI-H460,> 100 µM (inactive)
same,GI50,SK-MEL-28,> 100 µM (inactive)
same,GI50,SW-620,> 100 µM (inactive)
same,GI50,HOP-62,> 100 µM (inactive)
same,GI50,MDA-MB-435,> 100 µM (inactive)
same,GI50,LOX IMVI,> 100 µM (inactive)
same,GI50,OVCAR-8,> 100 µM (inactive)
same,GI50,NCI/ADR-RES,> 100 µM (inactive)
same,GI50,OVCAR-5,> 100 µM (inactive)
same,GI50,HL-60,> 100 µM (inactive)
same,GI50,SF-539,> 100 µM (inactive)
same,GI50,SK-MEL-5,> 100 µM (inactive)
same,GI50,MOLT-4,> 100 µM (inactive)
same,GI50,M14,> 100 µM (inactive)
same,GI50,OVCAR-4,> 100 µM (inactive)
same,GI50,NCI-H23,> 100 µM (inactive)
same,GI50,SR,> 100 µM (inactive)
same,GI50,U-251,> 100 µM (inactive)
same,GI50,SK-MEL-2,> 100 µM (inactive)
same,GI50,SF-295,> 100 µM (inactive)
same,GI50,SNB-75,> 100 µM (inactive)
same,GI50,MCF7,> 100 µM (inactive)
same,GI50,SF-268,> 100 µM (inactive)
same,GI50,EKVX,> 100 µM (inactive)
same,GI50,SN12C,> 100 µM (inactive)
same,GI50,HCT-116,> 100 µM (inactive)
same,GI50,A549,> 100 µM (inactive)
same,GI50,IGROV-1,> 100 µM (inactive)
same,GI50,Malme-3M,> 100 µM (inactive)
same,GI50,MDA-MB-231,> 100 µM (inactive)
same,GI50,DU-145,> 100 µM (inactive)
same,GI50,HCC 2998,20.9 µM (inactive)
same,GI50,HT-29,> 100 µM (inactive)
same,GI50,CCRF-CEM,> 100 µM (inactive)
same,GI50,BT-549,> 100 µM (inactive)
same,GI50,PC-3,> 100 µM (inactive)
same,GI50,SNB-19,> 100 µM (inactive)
same,GI50,KM12,> 100 µM (inactive)
same,GI50,K562,> 100 µM (inactive)
same,GI50,786-0,> 100 µM (inactive)
Cc1cn2c(/C=N/NC(=N)N)c(-c3cc([N+](=O)[O-])c(Cl)cc3Cl)nc2s1,GI50,UACC-257,2.24 µM (inactive)
same,GI50,HOP-92,3.32 µM (inactive)
same,GI50,NCI-H522,1.47 µM (inactive)
same,GI50,COLO 205,0.55 µM (active)
same,GI50,NCI-H460,2.29 µM (inactive)
same,GI50,SK-MEL-28,2.22 µM (inactive)
same,GI50,UACC-62,1.98 µM (inactive)
same,GI50,OVCAR-8,2.63 µM (inactive)
same,GI50,NCI/ADR-RES,> 100 µM (inactive)
same,GI50,HL-60,1.61 µM (inactive)
same,GI50,SF-539,2.52 µM (inactive)
same,GI50,UO-31,1.83 µM (inactive)
same,GI50,SK-MEL-5,2.77 µM (inactive)
same,GI50,OVCAR-4,1.91 µM (inactive)
same,GI50,TK-10,2.3 µM (inactive)
same,GI50,SK-MEL-2,2.35 µM (inactive)
same,GI50,SF-295,2.08 µM (inactive)
same,GI50,MCF7,0.49 µM (active)
same,GI50,SN12C,2.24 µM (inactive)
same,GI50,A549,4.06 µM (inactive)
same,GI50,IGROV-1,1.8 µM (inactive)
same,GI50,MDA-MB-231,2.4 µM (inactive)
same,GI50,HT-29,1.13 µM (inactive)
same,GI50,BT-549,2.51 µM (inactive)
same,GI50,PC-3,2.34 µM (inactive)
same,GI50,SNB-19,1.87 µM (inactive)
same,GI50,KM12,0.455 µM (active)

# Reference: ChEMBL document CHEMBL1201862, “PubChem BioAssay data set” (2004)
